The values below come from patent publication US20250268980A1, “AN ANTICANCER THERAPY TARGETING RAS AND OTHER ONCOGENIC SIGNALS BY INHIBITION OF DYNAMIC BLEBBING AND/OR SEPTINS” (THE BOARD OF REGENTS OF THE UNIVERSITY OF TEXAS SYSTEM, priority 2022, published 2025).

Holding throughout (format): cell-based, human
One assay relates to A375 cells. Briefly: Detached/adhered viability assay, ethidium homodimer staining, A375. Particulars: for anoikis resistance (cell death adhered vs detached): 24 hours. The method, then:
Bleb formation was inhibited using wheat germ agglutinin (WGA), a lectin that reduces plasma membrane deformability by crosslinking components of the glycocalyx. […] To investigate putative bleb function as a driver of anchorage-independent cell survival assays were designed that consistently minimized both cell-substrate and cell-cell attachment over a period of 24 hours. This was accomplished by seeding cells at very low density (approx. 250 or 100 cells/ml) in non-adherent culture dishes under constant gentle agitation. For controls, cells were grown at identical concentrations in adherent variants of the same culture dishes. Together, this generated pairs of ‘detached’ and ‘adhered’ cell populations in paired same-day experiments.
Cell Culture and Reagents. MV3 cells were obtained from MD Anderson Cancer Center. A375 cells (ATCCR CRL1619) were acquired from ATCC. M498 cells were acquired from UT Southwestern.
Detached/Adhered Cell Culture. […] Drug treatments, solvent-only controls, or CellEvent caspase activity sensor were added to suspensions if appropriate to the experiment, and then immediately transferred to both an uncoated (for detached cells) and ibiTreated (for adhered cells) 8-well ibidi u-slide (ibidi cat #80821 and 80826) at 200 μl/well. Both slides were stored at 37° C. and 5% CO2 for either 24 hours (hrs) for viability assays, 3 hrs for ERK activity assays or 4 hours for caspase activation assays. Uncoated slides (detached) were nutated at 20 rpm during this time. […] For experiments using MAPKi A375 cells, Dabrafenib and Trametinib treatment was continued over the course of the experiment.
(§1) Cells Grown in VitroGel Coffins. VitroGel coffins were prepared by embedding MV3 or A375 cells in VitroGel 3D or RGD at 1:1 dilution according to manufacturer's instructions (TheWell Biosciences, sku #TWG001). […] A 1:1 solution of VitroGel and VitroGel Dilution Solution was made and added to cell suspension at a ratio of 4:1 (VitroGel: cells) using gentle pipetting until well-mixed (with care taken not to form bubbles). Cell/VitroGel solution was transferred to an 8-well uncoated ibidi μ-slide (ibidi cat #80821) at 100 μl/well, spread over the bottom of wells with a pipette tip, and allowed to polymerize at room temperature for 15 minutes. The remainder of the well was then filled with 10% FBS DMEM and slide was stored at 37° C. and 5% CO2 for either 24 hrs for viability assays, 3 hrs for ERK activity assays, or 1 hour for visualization of septins/PI3K activity.
Viability, ERK Activity, and Caspase ActivityCell Counting Assays. Viability, ERK activity, and caspase activity assays were analyzed using live-cell fluorescent and phase-contrast microscopy, performed on a Nikon Ti microscope equipped with an environmental chamber held at 37° C. and 5% CO2 at 20× magnification. For viability assays, cells were stained with ethidium homodimer-1 (Invitrogen cat #E1169) at 4 µM and Hoechst (ThermoFisher cat #H3570) at 10 μg/ml for 15 minutes before imaging. Live and dead cells (as identified by significant cellular ethidium signal) were counted using the Cell Counter ImageJ plugin. For ERK activity assays, live cells carrying ERK-nKTR-GFP and H2B-mCherry were imaged after 3 hours of experimental conditions and high/low ERK activity cells were counted with Cell Counter ImageJ plugin. Cells in which nuclear GFP signals were by eye higher than cytoplasmic signal (“brighter” nucleus visible within “darker” cytoplasm) were labelled ERK low, while cytoplasmic signals equal to or higher than nuclear signal (nucleus indistinguishable from cytoplasm or “darker” nucleus within “brighter” cytoplasm) were labelled ERK high. To control for unconscious bias in making this determination, the identity of all ERK experimental groups were blinded from the analyst. […]

Assay [1] deals with cortical septin structures in MV3 cells. Briefly: Cortical septin localization (SEPT6-GFP) in MV3 cells. The method, then: (§2) Cells Embedded in 3D Collagen.
as §1
(§3) 3D Light-Sheet Imaging. […] All images were saved in the OME-TIFF format.
3D Cell Image Analysis. Cell morphology and septin localization were analyzed principally via u-shape3D similar to the protocol described in Driscoll et al. Nature Methods. 16, 1037-1044 (2019), the disclosure of which is incorporated herein in its entirety. Briefly, 3D images were first deconvolved using either a Richardson-Lucy or Wiener algorithm with an experimentally measured point spread function. […] Cell surfaces were then represented as triangle meshes, and the mean surface curvature at every triangle was calculated according to methods described in Driscoll et al. Nature Methods. […] Septin and NRAS localization was measured from fluorescence images by extending a sphere of either 1 μm (for septins) or 2 μm (for NRAS) about each mesh triangle and mapping to the triangle the average intensity both within that sphere and the cell. Image intensity was not depth normalized prior to analysis, but was instead measured from the raw, undeconvolved image. […]
Cortical septin levels were quantified by measuring the mean cytoplasmic intensity of each cell using hand-drawn ROIs that excluded nuclei (performed with the FIJI ImageJ package), and then calculating for each cell its fraction of cortical voxels (intracellular voxels within 0.96 μm of the u-Shape3D-derived surface) that were higher than that cell's mean cytoplasmic intensity (performed using a MATLAB script). NRAS enrichment at the surface was quantified by first calculating the total amount of intracellular signal expected to be within 0.96 μm of the surface if the cell's signal was homogenously distributed between all voxels, and then calculating the percent change between this value and the observed value for each cell. […]

The test system of the next assay is MV3 melanoma cells. As to the kind of experiment: 3D cell morphology analysis (blebs, surface curvature) of MV3 cells. The method, then:
as §2, §3
3D Cell Image Analysis. Cell morphology and septin localization were analyzed principally via u-shape3D similar to the protocol described in Driscoll et al. Nature Methods. 16, 1037-1044 (2019), the disclosure of which is incorporated herein in its entirety. Briefly, 3D images were first deconvolved using either a Richardson-Lucy or Wiener algorithm with an experimentally measured point spread function. Cells were next segmented from the image background using u-shape3D's ‘twoLevel’ mode, which combines a straightforward Otsu threshold of the image to detect the outer cell surface with a blurred version of the image to segment the inside of the cell. The volume segmented from the blurred image was morphologically eroded to ensure the fidelity of the overall segmentation. Cell surfaces were then represented as triangle meshes, and the mean surface curvature at every triangle was calculated according to methods described in Driscoll et al. Nature Methods. 16, 1037-1044 (2019) and Elliott et al., Nat. […] To remove irregularities, the curvature was next smoothed in real space with a median filter of 1 pixel to remove infinities and then slightly diffused along the mesh. Septin and NRAS localization was measured from fluorescence images by extending a sphere of either 1 μm (for septins) or 2 μm (for NRAS) about each mesh triangle and mapping to the triangle the average intensity both within that sphere and the cell. Image intensity was not depth normalized prior to analysis, but was instead measured from the raw, undeconvolved image. […]
Blebs were also detected according to methods similar to that described in Driscoll et al. Nature Methods. […] Distances from bleb edges were then calculated as the geodesic distance from each triangle to the nearest bleb edge. […] Bleb and septin directional correlations were calculated using spherical statistics, in particular by fitting spherical normal distributions to distributions defined at each mesh triangle.

As for wheat germ agglutinin [WGA], the viability entry with A375 cells (adhered A375 pre-incubated 48 hours with 10 nM Dabrafenib and 1 nM Trametinib, WGA) is on record as “minimal change in viability”. In addition, the cell death entry with A375 cells (detached A375 pre-incubated 48 hours with 10 nM Dabrafenib and 1 nM Trametinib, WGA) is given as “increased cell death”; in the assay with A375 cells (unstressed A375 cells, adhered or detached, 24 hours of WGA) it was “unaffected”. The “anoikis resistance upon bleb inhibition” value in the assay on A375 cells (pre-stressed A375 cells (overconfluent for 48 hours), WGA) was “strongly dependent upon blebbing”. The “cortical septin levels (fraction of cortical voxels above mean cytoplasmic SEPT6-GFP intensity)” value in assay [1] (MV3, relative to control conditions) is given as “significantly reduced cortical septin levels”. The “septin localization (cortical levels)” value in assay [1] (MV3 SEPT6-GFP, WGA (50 ug/ml), VitroGel, H1152 (1 μM), NSC668394 (10 μM)) is on record as “pronounced effects on septin localization, reducing cortical levels”. For the same compound, the “bleb density (fraction of cell surface comprised of blebs)” value in the assay with MV3 melanoma cells (MV3 cells, different concentrations of WGA, morphological motif analysis) is “dosage dependent inhibitor of bleb density”. For the same compound, the “mean plasma membrane curvature above K=0.4 μm-1” value with MV3 melanoma cells (control vs WGA-treated MV3 cells) is on record as “reduced”.

For `O=C(Nc1ccccc1)Nc1ccnc(Cl)c1` [FCF, forchlorfenuron], the “anoikis resistance (cell death adhered vs detached)” value with A375 cells (non-stressed A375, 50 μM FCF) was “no appreciable effect”; in the assay with A375 cells (pre-stressed A375, 50 μM FCF) it was “greatly disrupted anoikis resistance”. Also, the cortical septin structures entry in assay [1] (MV3 SEPT6-GFP, FCF treatment) is “near-complete ablation of cortical septin structures”. Also, the blebbiness entry in the assay with MV3 melanoma cells (MV3, FCF treatment) is recorded as “without altering blebbiness”.
